Experimental data reported in patent US20230119013A1, “N-CYANOPYRROLIDINES WITH ACTIVITY AS USP30 INHIBITORS” (MISSION THERAPEUTICS LIMITED, priority 2020, published 2023).

Legend:
[1] = test system: UCHL1, USP1, USP2, USP6, USP9x, USP10, USP15, USP16, USP20, USP21, USP22, USP25, USP28, USP35, USP36, USP46/UAF1; assay: DUB biochemical IC50 assays (off-target panel)
[2] = test system: HCT116 human colorectal carcinoma cells; assay: In vitro cytotoxicity (Cell Tox), alamarBlue; type: cell-based; settings: HCT-116, 96-hour continual compound exposure
Protocol: In Vitro Cytotoxicity (Cell Tox): Measured in HCT116 human colorectal carcinoma cells using alamarBlue™ as the assay endpoint. Compound cytotoxicity was measured over a period of 96-hour continual compound exposure.

[3] = test system: T1, cathepsins B, K, L, S and V; assay: Cathepsin IC50, summary over B, K, L, S, V; type: biochemical; settings: range over the five cathepsins
T1 construct: Cathepsin IC50 (μM) B, K, L, S, V; other: range over the five cathepsins

[4] = test system: cathepsins B, K, L, S and V; assay: Cathepsin IC50, summary over B, K, L, S, V; type: biochemical; settings: K, L; for fold more potent against USP30 than against each of the cathepsins, at a minimum: cathepsins B, S and V; for Selectivity preference for USP30 v cathepsins: range over cathepsins B, S
[5] = test system: Eurofins CEREP SafetyScreen44 panel; assay: Eurofins CEREP SafetyScreen44 panel profiling; type: binding; settings: single concentration of 10 μM; for Example 2 all targets except 5-HT2b
Description: Aside from selectivity over other DUB enzymes, it is important for a drug to have low affinity for other targets, and pharmacological profiling may be performed against panels of targets to assess the potential for, and to minimise, potential off-target effects. Examples of targets for which the compounds of the present invention may be screened against are those of the industry standard Eurofins-Cerep SafetyScreen44 panel, which includes 44 targets as a representative selection of GPCR receptors, transporters, ion channels, nuclear receptors, and kinase and non-kinase enzymes. Preferably, compounds of the invention have insignificant affinity against targets of this screening panel. Further examples of targets for which the compounds of the present invention may be screened against are kinases of the Thermo Fisher SelectScreen kinase profiling panel, which includes 39 targets as a representative selection of kinase enzymes. Preferably, compounds of the invention have insignificant affinity against targets of this screening panel. Additionally, examples of a particular enzyme class for which the compounds of the present invention may be screened against are the cathepsins (e.g. cathepsin A, B, C, H, K, L, L2, S, V and Z). Preferably, compounds of the invention have good selectivity for USP30 over one or more of these enzymes. […]

[6] = test system: P-glycoprotein (MDR1), human; assay: MDR1-MDCK flux assay; type: in vitro ADME; settings: dog; for Papp A→B: value in brackets
Description: The treatment of CNS disorders, including Alzheimer's disease, Parkinson's disease, and other disorders described herein, requires drug molecules to target the brain, which requires adequate penetration of the blood brain barrier. […] The probability that a compound can cross the blood brain barrier may be measured by an in vitro flux assay utilizing a MDR1-MDCK cell monolayer (Madin-Darby Canine Kidney cells transfected with MDR-1 resulting in overexpression of the human efflux transporter P-glycoprotein). Additionally, exposure may also be measured directly in brain and plasma using in vivo animal models.
MDR1-MDCK (Madin-Darby Canine Kidney cell monolayer) (in vitro) flux assay. Cell TE WB: USP30 endogenous cellular target engagement western blot (WB) assay. Assays the activity of compounds against USP30 in cells using an irreversible activity probe to monitor USP30 activity. TE ex vivo: USP30 kidney tissue target engagement assay. Kp u,u is the ratio of unbound drug in brain to unbound drug in plasma and may be indicative of potential for treating peripheral and/or CNS indications.

Cathepsin S = Cathepsin S (Homo sapiens, UniProt P25774); assay: Cathepsin IC50, Cathepsin S; type: biochemical
Cathepsin S, sequence (P25774 115-331, species assumed): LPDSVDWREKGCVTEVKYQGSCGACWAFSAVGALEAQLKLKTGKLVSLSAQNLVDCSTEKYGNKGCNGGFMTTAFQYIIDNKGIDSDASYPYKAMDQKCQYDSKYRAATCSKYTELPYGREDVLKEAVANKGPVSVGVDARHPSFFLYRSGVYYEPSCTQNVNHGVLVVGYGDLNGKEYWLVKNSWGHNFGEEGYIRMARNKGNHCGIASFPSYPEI

[7] = test system: Salmonella typhimurium strains TA98, TA100, TA1535 and TA97a and the Escherichia Coli strain WP2 uvrA pKM101; assay: Bacterial reverse mutation assay (Ames); type: cell-based; settings: up to 1000 μg/well (5000 μg/plate), with and without metabolic activation
Protocol: The bacterial reverse mutation assay (Ames Test) may be used to evaluate the mutagenic properties of compounds of the invention, commonly by using the bacterial strain Salmonella typhimurium, which is mutant for the biosynthesis of the amino acid histidine.
Example 1 was assessed in the bacterial reverse mutation assay (Ames) and in vitro micronucleus assay. All in vitro tests were conducted with and without exogenous metabolic activation using concentrations up to those limited by cytotoxicity or insolubility.
Example 2 was assessed in the bacterial reverse mutation assay (Ames). All in vitro tests were conducted with and without exogenous metabolic activation using concentrations up to those limited by cytotoxicity or insolubility.

UCHL1 = target: T2, UCHL1 (Homo sapiens, UniProt P09936); assay: DUB IC50 UCHL1; type: biochemical
T2 sequence (P09936 1-223): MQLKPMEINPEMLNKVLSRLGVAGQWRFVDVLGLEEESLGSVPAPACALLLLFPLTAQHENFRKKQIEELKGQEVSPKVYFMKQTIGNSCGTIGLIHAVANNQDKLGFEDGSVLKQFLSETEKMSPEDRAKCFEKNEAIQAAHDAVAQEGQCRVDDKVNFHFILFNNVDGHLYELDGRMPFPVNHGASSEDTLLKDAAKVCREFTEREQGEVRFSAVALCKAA

hepatocyte = assay: Hepatocyte clearance mouse; type: in vitro ADME; settings: mouse hepatocytes
Description: (§1) log P: partition coefficient; lipophilicity measurement. log D: distribution co-efficient; lipophilicity measurement. TPSA: topological polar surface area. Turbidimetric solubility: Test compound solution prepared in DMSO diluted into aqueous buffer. Turbidimetry is used as the end-point by measuring absorbance at 620 nm. FaSSIF: simulated intestinal fluid in fasted state measured at pH 6.5. Hep Cl mouse: in vitro hepatocyte clearance in mouse cells. Hep Cl human: in vitro hepatocyte clearance in human cells. Plasma fu,p: The free fraction of a compound in plasma preparation determined by in vitro equilibrium dialysis. It is understood that only unbound (free) compound is capable of engaging with the target. Brain fu,br: The free fraction of a compound in brain homogenate preparation determined by in vitro equilibrium dialysis. It is understood that only unbound (free) compound is capable of engaging with the target. Clu: in vitro clearance. Clu as defined here is the scaled clearance, in turn calculated from the intrinsic clearance. The intrinsic clearance is the predicted clearance due to hepatic metabolic reactions, determined from incubation of a compound in a hepatocyte preparation. […] Cl in vivo clearance: Pharmacokinetic measurement of the volume of plasma (or any matrix) from which a substance is completely removed per unit time.

Turbidimetric solubility = type: physicochemical; settings: aqueous buffer, kinetic from dmso stock
Description: as §1

| Compound | more selective for USP30 over DUB panel ([1]; v the 14 DUBs of the 10th table) | EC50 [2] [µM] | IC50 [3] [µM] | fold more potent against USP30 than against each of the cathepsins, at a minimum [4] [fold] | Selectivity preference for USP30 v cathepsins [4] | inhibition of binding or enzyme activity against all targets in the panel [5] | efflux ratio [6] | Papp A→B [6] [×10⁻⁶ cm/s] | IC50 (Cathepsin S) [µM] | induction of mutations, reverse mutation assay ([7]; TA98 and TA100) | DUB selectivity preference for USP30 v UCHL1 (UCHL1) | IC50 (UCHL1) [µM] | Hepatocyte Cl mouse scaled Clu (hepatocyte) [mL/min/kg] | solubility (Turbidimetric solubility) [µM] | more selective for USP30 over DUB panel ([1]; v the 16 DUBs of the 9th table) | induction of mutations, reverse mutation assay ([7]; TA98, TA100, TA1535, TA97a and E. coli WP2 uvrA pKM101) |
| --- | --- | --- | --- | --- | --- | --- | --- | --- | --- | --- | --- | --- | --- | --- | --- | --- |
| C[C@@H]1C[C@@H](NC(=O)c2ncc(-c3cccc(OC(F)(F)F)c3)o2)CN1C#N [Example 2, N-((3R,5R)-1-Cyano-5-methylpyrrolidin-3-yl)-5-(3-(trifluoromethoxy)phenyl)oxazole-2-carboxamide] | (≥940 × more selective | 24 | ≥ 8.5 | ≥ 1700 | 1700-6000 | less than 20% | 1.9 | 12 | > 30 | did not induce mutations | 20000 | > 100 | 130.6 | > 100 |  |  |
| COC[C@@H]1C[C@@H](NC(=O)c2ncc(-c3cccc(OC(F)(F)F)c3)o2)CN1C#N [Example 1, N-((3R,5S)-1-Cyano-5-(methoxymethyl)pyrrolidin-3-yl)-5-(3-(trifluoromethoxy)phenyl)oxazole-2-carboxamide] |  | > 30 | 16.5 to 158 | ≥ 3300 | 3300-31600 | less than 20% | 5.4 | 18 | 158 |  | 60000 | > 300 | 84.7 | > 100 | (≥880 × more selective | did not induce mutations |
